From patent US9695192B2, “Fused heterocyclic compounds as ion channel modulators” (GILEAD SCIENCES, INC., priority 2011, dated 2017)
Read-outs that look alike come from different tables or passages of the source.

Assays:
Assay type in all cases: cell-based
[1] = target: wild-type human cardiac sodium channel, hNav1.5 (Homo sapiens, UniProt Q14524); experiment: Late INa screening assay (QPatch whole cell patch clamp, tefluthrin-enhanced late sodium current); settings: HEK293 hNav1.5, late INa activated with 10 μM Tefluthrin
Procedure, shortened: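 Automated whole-cell patch clamp of HEK293 cells stably expressing hNav1.5 (no β subunits), 23-25 °C. Late current enhanced by 10 μM tefluthrin, 250 ms steps to −20 mV from −120 mV at 0.1 Hz, measured 225-250 ms. Compounds typically 1 μM, three additions over 7-8 min; % block normalised to 0 Na baseline.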

hNav1.5 Peak INa = hNav1.5 Peak INa (Homo sapiens, UniProt Q14524); experiment: Peak INa screening assay (tonic block and use-dependent block)
Procedure: The assay uses an HEK293 (human embryonic kidney) cell line heterologously expressing the wild-type human cardiac sodium channel, hNav1.5, purchased from Millipore (Billerica, Mass.). No beta subunits were coexpressed with the Na channel alpha subunit. Cells are maintained with standard tissue culture procedures and stable channel expression is maintained with 400 μg/mL Geneticin in the culture medium. […] Experiments are carried out at 23-25° C. […] Currents through open sodium channels are automatically recorded and stored in the Sophion Bioscience Oracle database (Sophion Bioscience, Copenhagen, Denmark). Analysis is performed using QPatch Assay and database software and data are compiled in Excel. Compound stocks are routinely made by the Gilead Sample Bank in plastic vials to 10 mM in dimethyl sulfoxide (DMSO). […] Stocks are sonicated as necessary. […] Compounds are diluted in extracellular solution to 1 μM in glass vials and then transferred to glass well plates before robotic addition to the cells. […] Good separation between the concentrations of test compound to reduce late and peak INa is beneficial to enable separation of the desired effect to reduce late INa-induced electrical and mechanical dysfunction from the undesired effect to reduce peak INa, which can lead to slowing or block of conduction of electrical excitation in the heart. It is contemplated that the compounds of Formula I avoid significant block of peak INa. […] Analysis of peak INa generally requires correction for rundown before determining the % block of peak current by the tested compound. […] Use-dependent block refers to the accumulation of block with increased frequency of channel activation. […] It is therefore expected that reduction of peak INa by compounds of this disclosure will be greater at high heart rates, such as those during tachyarrhythmias, than at normal heart rates. […] The intracellular solution used for the Peak INa assay is the same as outlined for the Late INa assay (see above). […] After establishing the whole cell recording configuration, channels were stimulated to open with low frequency stimulation (0.1 Hz) for 7 minutes so that the recording can be monitored and the extent to which the recording has stabilized can be assessed. […] Both TB and UDB were analyzed by incorporating rundown correction for the peak INa and UDB as calculated by compensating for the small use-dependent effect of the stimulation protocol on peak INa in the absence of compound.

human Nav1.1 = target: T1, human Nav1.1 (Homo sapiens, UniProt P35498); experiment: Nav1.1 use-dependent block, whole-cell voltage clamp, 10 Hz pulse train; settings: Chantest conditions, read-out: NAV1.1 UDB-10 HZ % Inhibition
T1 construct: expressed in transfected cells; host or cells: HEK293, transient transfection (Qiagen Superfect), α1:β1:β2 at 10:1:1

Sequence of hNav1.5 Peak INa (Q14524 whole entry): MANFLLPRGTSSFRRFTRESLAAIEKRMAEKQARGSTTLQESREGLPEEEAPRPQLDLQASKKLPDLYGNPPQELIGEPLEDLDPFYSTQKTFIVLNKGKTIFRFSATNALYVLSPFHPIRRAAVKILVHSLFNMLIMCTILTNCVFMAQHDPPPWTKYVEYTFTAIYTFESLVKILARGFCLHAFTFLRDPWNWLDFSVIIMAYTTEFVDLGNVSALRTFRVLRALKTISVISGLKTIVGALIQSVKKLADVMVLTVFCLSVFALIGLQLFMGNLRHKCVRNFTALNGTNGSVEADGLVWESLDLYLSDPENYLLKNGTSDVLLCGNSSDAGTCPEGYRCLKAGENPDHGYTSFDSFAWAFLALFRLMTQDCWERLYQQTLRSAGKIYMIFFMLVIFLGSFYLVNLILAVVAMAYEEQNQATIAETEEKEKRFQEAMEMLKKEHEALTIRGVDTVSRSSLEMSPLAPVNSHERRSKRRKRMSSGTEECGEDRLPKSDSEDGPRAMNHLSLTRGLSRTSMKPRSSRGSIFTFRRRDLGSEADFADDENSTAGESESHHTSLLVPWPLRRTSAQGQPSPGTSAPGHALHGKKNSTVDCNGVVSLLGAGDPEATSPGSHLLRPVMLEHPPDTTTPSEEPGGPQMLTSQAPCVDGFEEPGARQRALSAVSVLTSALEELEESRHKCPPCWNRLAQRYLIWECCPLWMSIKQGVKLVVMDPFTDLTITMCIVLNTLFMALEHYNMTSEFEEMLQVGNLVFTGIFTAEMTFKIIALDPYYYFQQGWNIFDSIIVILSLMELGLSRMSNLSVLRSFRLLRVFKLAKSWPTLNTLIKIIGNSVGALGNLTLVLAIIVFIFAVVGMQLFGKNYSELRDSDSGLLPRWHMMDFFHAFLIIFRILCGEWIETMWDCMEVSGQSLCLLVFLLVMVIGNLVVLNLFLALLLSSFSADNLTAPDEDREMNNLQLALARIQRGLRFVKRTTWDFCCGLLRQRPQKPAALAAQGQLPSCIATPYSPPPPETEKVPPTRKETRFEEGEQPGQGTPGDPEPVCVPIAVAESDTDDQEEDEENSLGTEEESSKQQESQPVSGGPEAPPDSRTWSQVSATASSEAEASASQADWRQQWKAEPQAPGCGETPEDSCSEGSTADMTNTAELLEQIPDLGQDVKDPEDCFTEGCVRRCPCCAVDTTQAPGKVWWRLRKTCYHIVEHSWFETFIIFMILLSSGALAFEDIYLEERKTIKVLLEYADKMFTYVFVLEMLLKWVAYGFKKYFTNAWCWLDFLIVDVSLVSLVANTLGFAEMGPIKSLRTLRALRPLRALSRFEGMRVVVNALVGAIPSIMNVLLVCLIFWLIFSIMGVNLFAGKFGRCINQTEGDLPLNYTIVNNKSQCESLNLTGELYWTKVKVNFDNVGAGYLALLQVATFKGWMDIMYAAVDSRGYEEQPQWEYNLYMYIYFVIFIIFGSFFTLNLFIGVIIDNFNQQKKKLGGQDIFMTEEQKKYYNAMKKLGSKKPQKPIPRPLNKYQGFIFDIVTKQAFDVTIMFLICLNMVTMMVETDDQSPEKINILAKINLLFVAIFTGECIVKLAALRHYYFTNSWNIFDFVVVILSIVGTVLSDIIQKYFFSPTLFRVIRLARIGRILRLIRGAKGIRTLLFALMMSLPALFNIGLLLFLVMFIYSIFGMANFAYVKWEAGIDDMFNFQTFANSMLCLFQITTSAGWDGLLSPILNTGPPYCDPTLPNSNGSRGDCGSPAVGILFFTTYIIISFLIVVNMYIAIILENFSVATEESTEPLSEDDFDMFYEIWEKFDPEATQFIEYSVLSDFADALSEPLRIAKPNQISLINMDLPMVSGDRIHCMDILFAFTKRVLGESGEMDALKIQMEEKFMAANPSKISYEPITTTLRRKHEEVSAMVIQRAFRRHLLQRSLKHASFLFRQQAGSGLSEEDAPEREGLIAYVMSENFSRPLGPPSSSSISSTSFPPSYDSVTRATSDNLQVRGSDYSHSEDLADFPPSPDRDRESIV
Sequence of wild-type human cardiac sodium channel, hNav1.5 (Q14524 whole entry): as above

FC(F)(F)c1ccc(-c2ccc3c(c2)C(NCc2ccccc2)=NCCO3)cc1 [II-2, N-benzyl-7-(4-(trifluoromethyl)phenyl)-2,3-dihydrobenzo[f][1,4]oxazepin-5-amine]
inhibition at 1 µM [1]: 41% | inhibition at 1 µM (hNav1.5 Peak INa; at 1 μM, 3 Hz stimulation, holding potential −100 mV, read-out: Peak UDB (use-dependent block of peak INa) % Inhibition): 57% | inhibition at 1 µM (hNav1.5 Peak INa; read-out: Peak TB (tonic block of peak INa) % Inhibition): 27% | inhibition at 1 µM (human Nav1.1): 9%
